Test results as given in ChEMBL document CHEMBL1140463, “From ATP to AZD6140: the discovery of an orally active reversible P2Y12 receptor antagonist for the prevention of thrombosis” (Bioorg Med Chem Lett, 2007).
Blank lines part the entries; values can stand above or below the molecule they belong to. Calls of active or inactive are those of the source. The rule behind the calls is not given here.

Legend:
Hepatocyte [1] = test: Metabolic stability in human hepatocytes in presence of NADPH relative to dextromethorphan; format: ADME, cell-based
P2Y purinoceptor 12 = P2Y purinoceptor 12 (Homo sapiens, UniProt Q9H244); test: Displacement of [125I] labeled ligand from human P2Y12 receptor in human platelets
Hepatocyte [2] = test: Metabolic stability in human hepatocytes in presence of UDPGA relative to zileuton; format: ADME, cell-based
Canis familiaris = test: Inhibition of ADP-induced platelet aggregation in po dosed dog; format: functional, organism-based; settings: Canis lupus familiaris
[3] = Oral bioavailability in rat at 3 to 10 mg/kg; format: ADME, organism-based; settings: in vivo
in vivo = settings: rat, iv, 3 mg/kg
Description: Plasma clearance in rat at 3 mg/kg, iv

[4] = Volume of distribution at steady state in rat at 3 mg/kg, iv; format: ADME, organism-based; design: dose 3 mg/kg, route intravenous; settings: in vivo, read-out: Vdss
[5] = Half life in rat at 3 mg/kg, iv; format: ADME, organism-based; design: dose 3 mg/kg, route intravenous; settings: in vivo
[6] = Volume of distribution at steady state in dog at 1 mg/kg, iv; format: ADME, organism-based, Canis lupus familiaris; design: dose 1 mg/kg, route intravenous; settings: in vivo, read-out: Vdss
[7] = Plasma clearance in dog at 1 mg/kg, iv; format: ADME, organism-based, Canis lupus familiaris; design: dose 1 mg/kg, route intravenous
[8] = Half life in dog at 1 mg/kg, iv; format: ADME, organism-based, Canis lupus familiaris; design: dose 1 mg/kg, route intravenous; settings: in vivo
[9] = Oral bioavailability in dog at 1 mg/kg; format: ADME, organism-based, Canis lupus familiaris; settings: in vivo

P2Y purinoceptor 12, sequence (Q9H244 whole entry): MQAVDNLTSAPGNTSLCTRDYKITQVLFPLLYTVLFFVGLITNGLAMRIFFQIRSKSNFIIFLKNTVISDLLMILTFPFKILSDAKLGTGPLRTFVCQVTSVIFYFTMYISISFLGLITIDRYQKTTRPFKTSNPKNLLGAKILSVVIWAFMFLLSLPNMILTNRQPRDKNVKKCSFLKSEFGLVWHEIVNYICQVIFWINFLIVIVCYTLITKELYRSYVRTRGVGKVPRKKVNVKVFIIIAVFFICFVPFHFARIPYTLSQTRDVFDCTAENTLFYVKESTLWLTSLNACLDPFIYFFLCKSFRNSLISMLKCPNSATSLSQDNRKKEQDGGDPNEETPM

Structure (SMILES): OC[C@H]1C[C@@H](n2nnc3c(N[C@@H]4C[C@H]4c4ccccc4)nc(SCCC(F)(F)F)nc32)[C@H](O)[C@@H]1O
- Stability (Hepatocyte [1]): Stable
- Ki (P2Y purinoceptor 12): 5.01 nM
- Ratio (Hepatocyte [2]): 19

Structure (SMILES): CCCSc1nc(N[C@@H]2C[C@H]2c2ccccc2)c2nnn([C@@H]3C[C@H](CO)[C@@H](O)[C@H]3O)c2n1 [listing 1 of 2 here]
- Activity (Canis familiaris): Active

Structure (SMILES): CCCSc1nc(N[C@@H]2C[C@H]2c2ccccc2)c2nnn([C@@H]3C[C@H](CO)[C@@H](O)[C@H]3O)c2n1.Cl
- bioavailability [3]: 37%
- Ratio (Hepatocyte [1]): 27
- Ki (P2Y purinoceptor 12): 6.31 nM
- Ratio (Hepatocyte [2]): 19

Structure (SMILES): CCCSc1nc(N[C@@H]2C[C@H]2c2ccccc2)c2nnn([C@@H]3C[C@H](C(N)=O)[C@@H](O)[C@H]3O)c2n1
- clearance (in vivo; plasma): 20 mL/min/kg
- bioavailability [3]: < 5%
- Vd [4]: 2.2 L/kg
- half-life [5]: 2 h
- Ki (P2Y purinoceptor 12): 1.58 nM

Structure (SMILES): CCCCNc1nc(SCCC)nc2c1nnn2[C@@H]1C[C@H](C(=O)O)[C@@H](O)[C@H]1O
- clearance (in vivo; plasma): 30 mL/min/kg
- bioavailability [3]: < 5%
- Vd [4]: 0.4 L/kg
- half-life [5]: 0.5 h
- Ki (P2Y purinoceptor 12): 5.01 nM

- clearance (in vivo; plasma): 21 mL/min/kg
- bioavailability [3]: 24%
- Vd [4]: 3.8 L/kg
- half-life [5]: 2.6 h
- Ratio (Hepatocyte [1]): 24
- Vd [6]: 3 L/kg
- clearance [7]: 9 mL/min/kg
- half-life [8]: 2.9 h
- bioavailability [9]: 72%
- Ki (P2Y purinoceptor 12): 2 nM
- Stability (Hepatocyte [2]): Stable
Structure (SMILES): CCCSc1nc(N[C@@H]2C[C@H]2c2ccc(F)c(F)c2)c2nnn([C@@H]3C[C@H](OCCO)[C@@H](O)[C@H]3O)c2n1 [TICAGRELOR]

Structure (SMILES): CCCSc1nc(N[C@@H]2C[C@H]2c2ccccc2)c2nnn([C@@H]3C[C@H](O)[C@@H](O)[C@H]3O)c2n1
- bioavailability [3]: 50%
- Stability (Hepatocyte [1]): Stable
- Ki (P2Y purinoceptor 12): 2 nM
- Ratio (Hepatocyte [2]): 3

Structure (SMILES): OCCO[C@H]1C[C@@H](n2nnc3c(N[C@@H]4C[C@H]4c4ccc(F)c(F)c4)nc(SCCC(F)(F)F)nc32)[C@H](O)[C@@H]1O
- clearance (in vivo; plasma): 12 mL/min/kg
- bioavailability [3]: 9%
- Vd [4]: 2.1 L/kg
- half-life [5]: 2.5 h
- Ratio (Hepatocyte [1]): 32
- Ki (P2Y purinoceptor 12): 0.631 nM
- Stability (Hepatocyte [2]): Stable

Structure (SMILES): CCCCNc1nc(SCCC)nc2c1nnn2[C@@H]1C[C@H](C(N)=O)[C@@H](O)[C@H]1O
- clearance (in vivo; plasma): 21 mL/min/kg
- bioavailability [3]: < 5%
- Vd [4]: 1.6 L/kg
- half-life [5]: 1.4 h
- Ki (P2Y purinoceptor 12): 20 nM

Structure (SMILES): CCCCNc1nc(SCCC)nc2c1nnn2[C@@H]1C[C@H](CO)[C@@H](O)[C@H]1O
- clearance (in vivo; in vivo): 29 mL/min/kg
- bioavailability [3]: < 5%
- Vd [4]: 2.3 L/kg
- half-life [5]: 1.2 h
- Ki (P2Y purinoceptor 12): 79.4 nM

Structure (SMILES): OC[C@H]1C[C@@H](n2nnc3c(N[C@@H]4C[C@H]4c4ccc(F)c(F)c4)nc(SCCC(F)(F)F)nc32)[C@H](O)[C@@H]1O
- clearance (in vivo; plasma): 11 mL/min/kg
- bioavailability [3]: 17%
- Vd [4]: 2.7 L/kg
- half-life [5]: 3 h
- Ratio (Hepatocyte [1]): > 30
- Vd [6]: 5.6 L/kg
- clearance [7]: 16.5 mL/min/kg
- half-life [8]: 4.8 h
- bioavailability [9]: 59%
- Ki (P2Y purinoceptor 12): 5.01 nM
- Stability (Hepatocyte [2]): Stable

Structure (SMILES): CCCSc1nc(N[C@@H]2C[C@H]2c2ccccc2)c2nnn([C@@H]3C[C@H](OCCO)[C@@H](O)[C@H]3O)c2n1
- bioavailability [3]: 26%
- Ratio (Hepatocyte [1]): 13
- Ki (P2Y purinoceptor 12): 3.16 nM
- Ratio (Hepatocyte [2]): 24

Structure (SMILES): CCCSc1nc(N[C@@H]2C[C@H]2c2ccccc2)c2nnn([C@@H]3CC[C@@H](O)[C@H]3O)c2n1
- bioavailability [3]: 38%
- Ki (P2Y purinoceptor 12): 2.51 nM
- Ratio (Hepatocyte [2]): 1

Structure (SMILES): CCCSc1nc(N[C@@H]2C[C@H]2c2ccccc2)c2nnn([C@@H]3C[C@H](CO)[C@@H](O)[C@H]3O)c2n1 [listing 2 of 2 here]
- clearance (in vivo; plasma): 16 mL/min/kg
- bioavailability [3]: 35%
- Vd [4]: 2.9 L/kg
- half-life [5]: 2.5 h
- Ratio (Hepatocyte [1]): > 30
- Ki (P2Y purinoceptor 12): 5.01 nM
- Ratio (Hepatocyte [2]): 5

Structure (SMILES): CCCSc1nc(N[C@@H]2C[C@H]2c2ccccc2)c2nnn([C@@H]3C[C@H](C(=O)O)[C@@H](O)[C@H]3O)c2n1
- clearance (in vivo; plasma): 16 mL/min/kg
- Vd [4]: 0.5 L/kg
- half-life [5]: 0.5 h
- Ki (P2Y purinoceptor 12): 0.251 nM
